From US20190117555A1, “SUBLINGUAL COMPOSITIONS COMPRISING NATURAL EXTRACTS AND USES THEREOF” (HARMONIC PHARMA, priority 2016, published 2019)

Experiments:
[1] = Oxygen Radical Absorbance Capacity (ORAC) assay; conditions: n=4
Description: 2.3. Oxygen Radical Absorbance Capacity (ORAC) Assay
(Ou B., Hampsch-Woodill M. and Prior R. L.: “Development and Validation of an Improved Oxygen Radical Absorbance Capacity Assay Using Fluorescein as the Fluorescent Probe”, J. Agric. Food Chem., 2001, 49 (10), 4619-4626)
Measurement of antioxidant capacity by the ORAC method is based on the detection of fluorescence drop of fluorescein (FL) thanks to its reaction with peroxyl radical ROO*, in a food matrix containing antioxidant compounds. Fluorescence was read with an excitation wavelength of 485 nm and an emission filter of 528 nm. AAPH solution and FL were prepared in a phosphate buffer solution at 75 mM at pH 7.4. The control of this reaction is the trolox which is also prepared in the same buffer. Six different quantities (10, 20, 35, 50, 70, 80 μl) of product with concentration of 0.5 mg/L were placed in the wells of the microplate with FL and adjusted at the same volume with buffer solution (80 μl). The mixture was preincubated for 30 min at 37° C., before rapidly adding the AAPH solution (220 μl) using a multichannel pipette. The microplate was immediately placed in the reader and the fluorescence recorded every 6 min for 240 min. A blank with FL and AAPH using sodium phosphate buffer instead of the antioxidant solution was used. The inhibition capacity was expressed as reference compound equivalents (μM), and is quantified by integrating of the area under the curve (AUC) of the fluorescein. The assays were carried out in quadruplicate (n=4). Efficacy of the tested samples is expressed as reference ORAC units per gram of products (the higher value corresponds to the stronger antioxidant activity).

[2] = Total AntiOxidant Power (PAOT) assay; conditions: for total antioxidant efficacy (PAOT): n=4, FIG. 3 and 4
Experimental: 2.4. Total AntiOxidant Power (PAOT®) Assay (Oxidative Stress)
Technology PAOT/POT® (Total AntiOxidant Power/Total Oxidant Power) is based on the electrochemical nature of redox reactions: a balance between antioxidants and oxidants [www.ie-antioxydants.com]. The assays were carried out in quadruplicate (n=4) (The higher value corresponds to the best antioxidant efficacy).

[3] = test system: TNF-α; assay: TNF-α release by LPS-stimulated PBMCs (HTRF); type: cell-based; conditions: Homo sapiens, PBMC, 5 μg/mL LPS, 24 h, read-out: % inhibition TNF-α (Standard deviation)
Experimental: (§1) Interleukin-1beta (IL-1beta) and tumor necrosis factor-alpha (TNF-alpha) mediate the development of numerous inflammatory diseases. IL-1beta and TNF-alpha therefore constitute suitable biomarkers to characterize the anti-inflammatory property of compounds of the part of branch extracts of the invention.
(§2) Peripheral blood mononuclear cells (PBMCs) were prepared from the peripheral blood of healthy donors (Etablissement Français du Sang) according to Kümmerle et al. (J Med Chem. 2012, 55, 7525-7545) with slight modifications. PBMCs were isolated using Histopaque gradient (Sigma), washed in Hanks' balanced salt solution (Sigma) and were then cultured in RPMI-1640 medium (Sigma) supplemented with 10% (v/v) fetal bovine serum (FBS) (PAA), 100 U/mL penicillin and 100 μg/mL streptomycin (PAA). PBMCs were seeded into 96-well plates (8×10^4 cells/well) and stimulated with 5 μg/mL LPS (Lipopolysaccharides, Sigma), into a total volume of 120 μL per well. HMR was re-suspended in DMSO and tested at 10, 30, and 100 μM (DMSO 1%) in duplicate. […] Cells incubation was realized at 37° C. (5% CO2).
(§3) After 24 h, PBMCs supernatants were transferred into a 384-well plate. Cytokine detection was performed using HTRF technology (Cisbio bioassays) for TNF-α (62TNFPEC), IL-1β (62IL1PEC) according to supplier recommendations. Reading was performed after 3 h of incubation using Envision multi-labelled reader (PerkinElmer) using supplier recommended parameters.

[4] = test system: IL-1β; assay: IL-1β release by LPS-stimulated PBMCs (HTRF); type: cell-based; conditions: Homo sapiens, PBMC, 5 μg/mL LPS, 24 h, read-out: % inhibition IL-1β (Standard deviation)
Experimental: as §1, §2, §3

[5] = target: T1, Human COX-2 (Homo sapiens, UniProt P35354); assay: Human COX-2 inhibition assay; type: biochemical; conditions: HMR 10 μM; extract equiv. 10 μM
T1 sequence (P35354 18-604): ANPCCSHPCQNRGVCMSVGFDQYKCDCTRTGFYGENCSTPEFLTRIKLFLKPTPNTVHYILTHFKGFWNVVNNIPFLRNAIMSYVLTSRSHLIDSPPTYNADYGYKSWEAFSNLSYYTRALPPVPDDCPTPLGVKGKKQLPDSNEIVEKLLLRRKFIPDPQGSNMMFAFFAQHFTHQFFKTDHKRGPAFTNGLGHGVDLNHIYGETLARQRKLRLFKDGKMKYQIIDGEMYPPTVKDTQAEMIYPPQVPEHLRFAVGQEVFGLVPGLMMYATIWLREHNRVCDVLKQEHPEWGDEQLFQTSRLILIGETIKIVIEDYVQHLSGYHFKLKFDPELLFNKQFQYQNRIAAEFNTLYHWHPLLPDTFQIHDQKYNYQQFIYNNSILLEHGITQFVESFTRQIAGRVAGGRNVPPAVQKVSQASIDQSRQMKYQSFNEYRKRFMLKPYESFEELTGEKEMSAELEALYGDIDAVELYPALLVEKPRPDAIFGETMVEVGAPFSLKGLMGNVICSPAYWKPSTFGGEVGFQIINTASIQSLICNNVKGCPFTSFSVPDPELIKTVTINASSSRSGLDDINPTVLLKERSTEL
Description: The results are expressed as a percent inhibition of the control enzyme activity.

[6] = target: T2, Human 5-LO (Homo sapiens, UniProt P09917); assay: Human 5-LO inhibition assay; type: biochemical; conditions: HMR 10 μM; extract equiv. 10 μM
T2 sequence (P09917 1-674): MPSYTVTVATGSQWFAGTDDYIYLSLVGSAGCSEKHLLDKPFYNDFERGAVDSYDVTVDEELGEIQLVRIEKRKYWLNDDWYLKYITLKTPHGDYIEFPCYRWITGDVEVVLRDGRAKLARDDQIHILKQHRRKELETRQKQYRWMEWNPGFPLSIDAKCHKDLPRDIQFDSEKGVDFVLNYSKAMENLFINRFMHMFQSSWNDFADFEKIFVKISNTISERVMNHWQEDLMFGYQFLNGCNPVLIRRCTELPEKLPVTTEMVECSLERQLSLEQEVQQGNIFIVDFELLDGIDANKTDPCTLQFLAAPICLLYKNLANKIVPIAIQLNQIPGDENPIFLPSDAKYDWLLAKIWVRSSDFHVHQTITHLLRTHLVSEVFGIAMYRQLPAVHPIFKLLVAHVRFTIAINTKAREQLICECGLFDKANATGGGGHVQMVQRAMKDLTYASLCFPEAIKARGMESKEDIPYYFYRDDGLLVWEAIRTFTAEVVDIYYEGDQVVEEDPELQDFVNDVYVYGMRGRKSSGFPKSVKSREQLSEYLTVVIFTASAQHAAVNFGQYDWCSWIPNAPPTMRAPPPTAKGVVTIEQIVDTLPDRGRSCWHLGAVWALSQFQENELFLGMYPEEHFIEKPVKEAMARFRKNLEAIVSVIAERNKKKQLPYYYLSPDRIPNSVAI
Experimental: Human 5-LO Inhibition Assay:
The test compound, reference compound or water (control) were preincubated for 5 min at room temperature with 10^4 lysed cells/well in a buffer containing 50 mM Tris-HCl (pH 7.4), 5 mM CaCl2, 2 mM EDTA, 1 μM ATP and 50 nM fluorescent probe dihydrorhodamine 123. The fluorescence intensity was then measured at λex=485 nm and λem=535 nm using a microplate reader (Envision, Perkin Elmer). This measurement at t=0 allowed the detection of any compound interference with the fluorimetric detection method at these wavelengths. Thereafter, the reaction was initiated by adding 25 μM of the substrate arachidonic acid and the mixture was incubated for 20 min at room temperature. The reaction was stopped by adding a buffer containing 67% acetonitrile and 0.2% acetic acid and the fluorescence intensity emitted by the reaction product rhodamine 123 was measured at the same wavelengths (t=20). The enzyme activity was determined by subtracting the signal measured at t=0 from that measured at t=20.
The results are expressed as a percent inhibition of the control activity.

[7] = Trolox Equivalent Antioxidant Capacity (TEAC) assay; conditions: per 1 g of product; FIG. 2
Experimental: Trolox Equivalent Antioxidant Capacity (TEAC) Assay
ABTS radical cation (ABTS•+) was produced by reacting 7 mM ABTS stock solution with 2.45 mM potassium persulfate and allowing the mixture to stand in the dark at room temperature for 12-16 h before being used. Next ABTS•+solution was diluted with PBS (Phosphate Buffer Saline) (pH 7.4) to an absorbance of 0.5 at 734 nm and equilibrated at 30° C. 200 μl of ABTS•+ and (10, 20, 35, 50, 70, 80 μl) of product solutions (0.5 mg/L) was mixed and adjusted to 300 μl with buffer solution. After 15 min incubation, the optical density was measured. The assays were performed in quadruplicate (n=4). Efficacy is expressed as a value of EC50 (the smaller value of EC50 corresponds to the stronger antioxidant activity).

Compound | μmol Trolox/g tested product [1] | μmol Vit. C/g tested product [1] | μmol Vit. E/g tested product [1] | μmol β-carotene/g tested product [1] | total antioxidant efficacy (PAOT) [2] | antioxidant activity with regard to Trolox ([2]; reference Trolox) | antioxidant activity with regard to Vitamin E ([2]; reference Vitamin E (tocopherol)) | antioxidant activity with regard to β-carotene ([2]; reference β-carotene) | inhibition at 10 µM ([3]; 10 μM) | inhibition at 30 µM ([3]; 30 μM) | inhibition at 100 µM ([3]; 100 μM) | inhibition at 10 µM ([4]; 10 μM) | inhibition at 30 µM ([4]; 30 μM) | inhibition at 100 µM ([4]; 100 μM) | inhibition at 10 µM [5] | inhibition at 10 µM [6] | antioxidant activity of 1 g of product equivalent to g of trolox [7] | antioxidant activity of 1 g of product equivalent to g of vitamin E [7]
COc1cc(C[C@H]2C(=O)OC[C@@H]2[C@H](O)c2ccc(O)c(OC)c2)ccc1O (stereo in doubt) [HMR, Hydroxymatairesinol] | 210 ± 50 μmol Trolox/g tested product | 110 ± 10 μmol Vit. C/g tested product | 105 ± 10 μmol Vit. E/g tested product | 27 ± 2 μmol β-carotene/g tested produ | 4.99 mmol/g equivalent of antioxidant | 0.62 gram of reference compound per gram of tested product | 1.07 gram of reference compound per gram of tested product | 2.68 gram of reference compound per gram of tested product | 7% | 15% | 26% | 10% | 25% | 28% | 18.7% | 14.7% |  | 
OC[C@H](Cc1cccc(O)c1)[C@H](CO)Cc1cccc(O)c1 [enterodiol] | 500 ± 60 μmol Trolox/g tested product | 700 ± 100 μmol Vit. C/g tested product | 600 ± 80 μmol Vit. E/g tested product | 165 ± 5 μmol β-carotene/g tested produ | 1.07 mmol/g equivalent of antioxidant |  |  |  |  |  |  |  |  |  |  |  | 0.15 g | 0.22 g
O=C1OC[C@H](Cc2cccc(O)c2)[C@H]1Cc1cccc(O)c1 [enterolactone] | 560 ± 50 μmol Trolox/g tested product | 110 ± 10 μmol Vit. C/g tested product | 105 ± 10 μmol Vit. E/g tested product | 30 ± 2 μmol β-carotene/g tested produ | 1.06 mmol/g equivalent of antioxidant |  |  |  |  |  |  |  |  |  |  |  | 0.13 g | 0.19 g
